Consider four compounds from patent US8173606B2, “Sulfated oligosaccharide derivatives” (Progen Pharmaceuticals Limited, priority 2004, dated 2012).

The target of data set [1] is T1, VEGF (Homo sapiens, UniProt P15692).
T1 sequence (P15692 27-191 isoform P15692-4): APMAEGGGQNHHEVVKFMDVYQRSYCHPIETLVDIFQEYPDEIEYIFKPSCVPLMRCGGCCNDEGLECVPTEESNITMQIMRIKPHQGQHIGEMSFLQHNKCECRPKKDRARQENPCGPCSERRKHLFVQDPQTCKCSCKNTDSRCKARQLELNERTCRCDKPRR
In words: SPR based solution affinity assay, growth factor binding (VEGF). As to conditions: heparin-coated sensorchip, HBS-EP buffer, 25° C. As to the method: (§1) Binding affinities of ligands for the growth factors FGF-1, FGF-2 and VEGF were measured using a surface plasmon resonance (SPR) based solution affinity assay. The principle of the assay is that heparin immobilised on a sensorchip surface distinguishes between free and bound growth factor in an equilibrated solution of the growth factor and a ligand. Upon injection of the solution, the free growth factor binds to the immobilised heparin, is detected as an increase in the SPR response and its concentration thus determined. A decrease in the free growth factor concentration as a function of the ligand concentration allows for the calculation of the dissociation constant, Kd. It is important to note that ligand binding to the growth factors can only be detected when the interaction involves the HS binding site, thus eliminating the chance of evaluating non-specific binding to other sites on the protein. A 1:1 stoichiometry has been assumed for all protein:ligand interactions.
(§2) For the testing of growth factor binding activity, heparin-coated sensorchips were used. Their preparation, via immobilisation of biotinylated BSA-heparin on a streptavidin-coated sensorchip, has been described.[5] Heparin has also been immobilised via aldehyde coupling using either adipic acid dihydrazide or 1,4-diaminobutane. […] Ligands binding to FGF-1 and VEGF were measured in HBS-EP buffer (10 mM HEPES, pH 7.4, 150 mM NaCl, 3.0 mM EDTA and 0.005% (v/v) polysorbate 20), while binding to FGF-2 was measured in HBS-EP buffer containing 0.3 M NaCl.[5] […] For each assay mixture, 50-200 μL of solution was injected at 5-40 μL/min and the relative binding response measured. […]
(§3) Sensorgram data were analysed using the BIAevaluation software (BIAcore). […]
(§4) [formula] and the binding equation[5] can be expressed as
(§5) The Kd values given are the values fit, using the binding equation, to a plot of [P] versus [L]total. Where Kd values were measured in duplicate, the values represent the average of the duplicate measurements. […]

In data set [2] the target is FGF-1 (Homo sapiens, UniProt P05230). Put plainly: SPR based solution affinity assay, growth factor binding (FGF-1). As to conditions: heparin-coated sensorchip, HBS-EP buffer, 25° C.; read-out: Kd aFGF. How it is done: as §1, §2, §3, §4, §5
The target in data set [3] is T2, heparanase (Homo sapiens, UniProt Q9Y251).
T2 sequence (Q9Y251 158-543 limits assumed): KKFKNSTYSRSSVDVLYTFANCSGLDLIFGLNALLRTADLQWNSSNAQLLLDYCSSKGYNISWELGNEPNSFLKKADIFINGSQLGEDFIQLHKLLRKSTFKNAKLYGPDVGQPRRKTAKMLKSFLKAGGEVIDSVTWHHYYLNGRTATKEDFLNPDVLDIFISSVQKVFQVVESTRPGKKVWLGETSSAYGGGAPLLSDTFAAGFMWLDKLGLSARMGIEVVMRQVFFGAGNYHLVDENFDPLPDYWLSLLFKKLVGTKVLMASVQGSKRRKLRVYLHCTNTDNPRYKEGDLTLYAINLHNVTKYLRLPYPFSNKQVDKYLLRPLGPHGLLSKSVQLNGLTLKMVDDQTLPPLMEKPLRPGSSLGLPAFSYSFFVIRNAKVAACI
T2 sequence (Q9Y251 36-109 limits assumed): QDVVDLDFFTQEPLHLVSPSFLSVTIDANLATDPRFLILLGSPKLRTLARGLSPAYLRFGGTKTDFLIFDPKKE
In words: Heparanase inhibition, Microcon ultrafiltration assay. The class given is biochemical. The following applies: 3H labelled HS, pH 5.0, 22° C., 2.5 h. How it is done:
The heparanase assays were performed using a Microcon ultrafiltration assay. The assays rely on the principle of physically separating heparan sulfate (HS) that has been digested by heparanase from native HS to determine heparanase activity. The assay uses ultrafiltration devices (Microcon YM-10) to separate the smaller heparanase-cleaved HS fragments from native HS.
A reaction was set up with a volume of 90 μL, • 40 mM acetate buffer (pH 5.0) • 0.1 mg/mL BSA • 90 ng heparanase • 2.5 μM ^3H labelled HS • various concentrations of inhibitors.
The reactions were set up with all components except the ^3H labelled HS and allowed to equilibrate for 10 min at 22° C. The assays were then initiated by adding the HS and immediately 20 μL was taken, mixed with 80 μL of 10 mM phosphate (pH 7.0) and the 100 μL transferred to a Microcon YM-10 concentrator which was then centrifuged at approximately 14000 g for 5 min. The solution that passed through the membrane (filtrate) was retained. This sample was considered the time=0 sample. The assays (now 70 μL in volume) were allowed to react at 22° C. for 2.5 h and then the filtration step was repeated for three aliquots of 20 μL from each assay.
The time=0 filtrate and the three 2.5 h filtrate samples were counted for ^3H. The difference between the time=0 and the averaged 2.5 h samples gave the amount of heparanase activity. All inhibition assays were run with a heparanase standard assay which was identical to the assay composition above except no inhibitor was present and the amount of heparanase inhibition in the other assays determined by comparison with this standard.

In data set [4] the target is FGF-2 (Homo sapiens, UniProt P09038). Put plainly: SPR based solution affinity assay, growth factor binding (FGF-2). As to conditions: heparin-coated sensorchip, HBS-EP buffer containing 0.3 M NaCl, 25° C.; read-out: Kd bFGF. As to the method:
as §1, §2, §3, §4, §5

In data set [5] the test system is herpes simplex virus (HSV-1) KOS321 strain. In words: Antiviral assay, HSV-1 cell-to-cell spread (plaque area). The class given is cell-based. The following applies: African green monkey kidney cells; compound in overlay medium after infection, 3 days. The text has this: (§6) In panel A, the results are expressed as a percentage of the number of viral plaque forming units (PFU) formed in cells infected with the compound-treated virions relative to mock-treated controls. In panel B, the results are expressed as a percentage of the average area of 20 viral plaques formed in the continuous presence of compound relative to mock-treated control cells. Monolayer cultures of African green monkey kidney cells[35] and herpes simplex virus (HSV-1) KOS321 strain[36] were used throughout. The antiviral assays on the compounds were performed as described by Nyberg et al.[13] Briefly, the effects of the compounds on the infection of cells by exogenously added virus were tested by mixing serial fivefold dilutions of compound (at 0.032-20 μM) with approximately 200 plaque forming units of the virus. Following incubation of the virus and compound for 10 min at room temperature, the mixture was added to the cells and left on the cell monolayer for 2 h at 37° C. Subsequently, the inoculum was aspirated and replaced with an overlay medium of 1% methylcellulose solution in Eagle's minimum essential medium (EMEM). The viral plaques that developed after incubation of cells for 3 days at 37° C. were stained with 1% crystal violet solution and counted. The effects of the compounds on cell-to-cell spread of HSV-1 were tested by adding serial fivefold dilutions of compound (at 0.032-20 μM) in the serum-free overlay medium to cells after their infection with HSV-1. After incubation of the compound with the cells for 3 days at 37° C., the images of 20 plaques were captured and subjected to area determination using IM500 software (Leica).

Data set [6] shares this test system. Put plainly: Antiviral assay, HSV-1 infectivity (plaque forming units). The class given is cell-based. As to conditions: African green monkey kidney cells; virus pre-incubated with compound 10 min.
Source text: as §6

Data set [7] can be described thus: Pharmacokinetic studies of 35S-labelled compounds after iv administration. The following applies: rat; for Urinary Recovery: urine collected 0-48 h. How it is done:
The polyol precursors for PG500, 501, 503, 504, 506 and PI-88 (2 mg of each) were desiccated under vacuum over P2O5 for 3 days. Into each vial was syringed 50 μL of a stock solution of 1.77 mg (2.0 mCi) of ^35SO3.pyridine complex and 2 mg SO3.Me3N in 300 μL of anhydrous DMF (Aldrich, redried over freshly ignited 3 A molecular sieves). A further 600 μL of anhydrous DMF was added to the SO3 vial and was distributed to each sample vial. The samples were heated to 60° for 66 hr. SO3.Me3N (14 mg in 300 μL anhydrous DMF) was added to each vessel and the resulting solutions were heated to 60° overnight. The vials were cooled to room temperature and stored at −80° C. awaiting purification.
Each sample was quenched by addition of Na2CO3 (sat. aqu. adjusted to pH 8-9), evaporated to dryness and subjected to SEC (Biogel P2, 2.6×90 cm, flow rate 30 mL/hr, 5 min/fraction). Fractions containing desired material were detected using a G-M counter and DMB test followed by CE.
Male Sprague Dawley rats (250-350 g) were used. The animals were allowed free access to food and water before and during the experiments, during which they were maintained unrestrained in metabolism cages. Rats were anaesthetized with isoflurane (Forthane®). A catheter was inserted in the external jugular vein via an incision in the neck, and was passed under the skin to a second incision in the skin of the back (midline vicinity of the scapulae). This was then exteriorized with the protection of a light metal spring. The incision was closed and the spring fixed to the skin with Michel sutures so that the rats had full range of movement. The animals were carefully monitored during recovery (1-4 h).
All doses were administered as a bolus intravenous injection of 2.5 mg/kg in a dose volume of 2 mL/kg. The total amount of radioactivity administered to each rat was 0.5-10 μCi. The dose level used in this study is 10-fold lower than the no-effect dose previously established for acute toxicity of PI-88. Blood samples (˜250 μL) were collected predose and at 5, 15, 30, 45 min, and 1, 1.5, 2, 4, 8, 12, 24, 36 and 48 h after dosing. The blood samples were immediately centrifuged and the plasma collected. At completion of the experiments, the animals were killed by a lethal overdose of IV pentobarbitone anaesthetic (Nembutal®). Urine was collected from each animal at intervals of 0-12 h, 12-24 h and 24-48 h after dosing. Cage washings (˜15 mL of deionised water) were also collected. At the end of the experiment, bladder contents were aspirated from each animal and added to the 24-48 h voidings. Feces were collected over the same time intervals as the urine.
Aliquots of plasma (100 μL), urine and cage washings (500 μL) were transferred directly to 6 mL polypropylene scintillation vials for determination of radioactivity. Feces collected during each time period (from one animal dosed with each compound) were weighed and homogenised in 4 volumes of deionised water using a mechanical homogeniser. Approximately 1 g (accurately weighed) of this slurry was transferred to a 20 mL glass scintillation vial, 2 mL of tissue solubiliser added and the vials capped and incubated at 60° C. for at least 24 h. Radioactivity was measured following mixing of samples with Packard Ultima Gold liquid scintillation counting cocktail (2.0 mL for plasma and dose, 5.0 mL for urine and cage washings, 10 mL for feces). Counting was conducted on a Packard Tr-Carb liquid scintillation counter. Any result less than three times the background was considered less than the lower limit of quantitation not used in calculations. Plasma, urine and cage washings were counted in triplicate within 5 days of collection and were not corrected for radiochemical decay. Feces were processed as a batch at the completion of the study and the counts from these samples were corrected for radiochemical decay.

Where [8] appears, read: iv bolus 2.5 mg/kg, plasma radioactivity.

Marks after values point to notes of the source that are not given here.

Chain of FGF-2 (P09038 143-288, species assumed): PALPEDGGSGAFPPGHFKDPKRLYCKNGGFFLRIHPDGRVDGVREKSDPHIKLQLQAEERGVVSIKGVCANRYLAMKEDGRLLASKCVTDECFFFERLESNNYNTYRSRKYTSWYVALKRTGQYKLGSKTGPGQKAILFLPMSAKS
Chain of FGF-1 (P05230 whole entry, species assumed): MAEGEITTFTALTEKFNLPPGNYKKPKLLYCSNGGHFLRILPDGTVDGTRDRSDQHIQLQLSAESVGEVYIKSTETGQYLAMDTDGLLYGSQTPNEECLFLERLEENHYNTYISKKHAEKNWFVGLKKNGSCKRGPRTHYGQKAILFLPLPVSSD

With `[N-]=[N+]=NC1OC(COS(=O)(=O)O)C(OC2OC(COS(=O)(=O)O)C(OC3OC(COS(=O)(=O)O)C(OC4OC(COS(=O)(=O)O)C(OC5OC(COS(=O)(=O)O)C(OC6OC(COS(=O)(=O)O)C(OS(=O)(=O)O)C(OS(=O)(=O)O)C6OS(=O)(=O)O)C(OS(=O)(=O)O)C5OS(=O)(=O)O)C(OS(=O)(=O)O)C4OS(=O)(=O)O)C(OS(=O)(=O)O)C3OS(=O)(=O)O)C(OS(=O)(=O)O)C2OS(=O)(=O)O)C(OS(=O)(=O)O)C1OS(=O)(=O)O` (stereo not drawn) [PG505], the values for the Kd in data set [1], in data set [2] and in data set [4] were 4.8 ± 0.4 nM, 1.96 ± 0.3 nM and 137 ± 12 nM, respectively. Further, the IC50 in data set [3] worked out at 1040 ± 147 nM.

PEG2000 Polysulfate [PG506] returned an IC50 in data set [5] of 7000 nM. The IC50 in data set [6] worked out at 10000 nM. In addition, in data set [7] (iv bolus 2.5 mg/kg), the “Cl* (apparent)” value was 404 ± 59.5^ mL/h/kg, the “Vd* (apparent)” value is 44.5 ± 4.5^ mL, the “k* (apparent)” value is given as 1.17 ± 0.024^ h^−1 and the “Urinary Recovery” value is reported as 79.1 ± 3.6^ % dose. The C0 in data set [7] (setting [8]) is 17.1 ± 1.8^ μg-eq/mL. For the same compound, the “AUC0-12 h, calculated over 0-8 h post dose interval only” value in data set [7] (iv bolus 2.5 mg/kg, 0-8 h post dose interval only) was 6.2 ± 1.0^a μg-eq/h · mL.

PEG5000 Polysulfate [PG504] displayed a 50% inhibitory concentration (IC50) in data set [5] of 11000 nM. In data set [7] (iv bolus 2.5 mg/kg), the “Cl* (apparent)” value amounted to 172 ± 11.8 mL/h/kg, the “Vd* (apparent)” value is reported as 24.9 ± 2.9 mL, the “k* (apparent)” value is 0.247 ± 0.003 h⁻¹ and the “Urinary Recovery” value is 66.5 ± 9.4 % dose. Further, in data set [7] (setting [8]), the AUC0-12 h worked out at 14.7 ± 1.2 μg-eq/h · mL and the C0 was determined as 30.5 ± 2.3 μg-eq/mL.

Take PI-88 [reference compound]: in data set [7] (in vivo, iv, 2.5 mg/kg), the AUC0-12 h is listed as 9.6 ± 1.9 μg-eq/h · mL, the C0 amounted to 17.7 ± 2.23 μg-eq/mL, the “Cl* (apparent)” value is given as 250 ± 27.6 mL/h/kg and the “Vd* (apparent)” value is on record as 43.1 ± 1.9 mL. Besides, the “t1/2* (apparent)” value in data set [7] (in vivo, iv, 2.5 mg/kg) was 49.8 ± 5.4 min.
